# Patent publication US10596190B2, “Method for reducing ototoxicity in pediatric patients receiving platinum-based chemotherapy” (priority 2017, dated 2020)
# Where two headings read alike, the source gives them in different places.
# How the values were obtained:
# [1] = tested on: patients receiving Cisplatin chemotherapy for standard risk hepatoblastoma; type: in vivo, human
# Excerpt: The control arm included cisplatin only treated patients and the test arm including cisplatin treated patients followed by administration of STS.
# The primary end point of the study was the rate of Brock grade ≥1 hearing loss determined after end of trial treatment or at an age of at least 3.5 years, whichever was later. Secondary end-points included: response to preoperative chemotherapy, complete resection, complete remission, event free survival (EFS), overall survival (OS), toxicity as graded by CTCAE v 3.0, long-term renal clearance, and feasibility of central audiology review
# • Pre-operative randomised 1:1 chemotherapy (4 courses of Cisplatin, with or without STS, every second week) • Surgical removal of all remaining tumour lesions.
# For all patients, the pre-surgery courses were given on day 1, 15, 29 and 43 (exceptionally, if surgery was delayed, courses could also be given on day 57 and 71). Post-surgery courses were started as soon as possible, but within 21 days with two courses given on day 1 and 15. […] The following treatment schedules were followed:
# Administration Pre-hydration • At least 3 hours pre-hydration with 2.5% dextrose/0.45% saline • Run at 200 ml/m2/hr (total volume 600 ml/m^2) Cisplatin infusion over 6 hours • Cisplatin in 0.9% sodium chloride. […]
# [2] = in a solution of sodium chloride; cited from earlier work
# [3] = tested on: pediatric patients receiving cisplatin
# Excerpt: (§1) Secondary endpoints were frequency-specific hearing loss at 4 weeks (for 500 Hz, 1000 Hz, 2000 Hz, 4000 Hz, and 8000 Hz), haematological and renal toxicity, event free survival (defined as the time from study enrolment until disease relapse or progression, diagnosis of a second malignant neoplasm, or death, whichever came first), and overall survival (defined as the time from enrolment to death or last date confirmed alive). By protocol amendment on Mar.
# We estimated the probability of remaining event free as a function of time post-enrolment using the method of Kaplan and Meier. We compared risk of event across groups defined by randomised regimen using the log-rank statistic. We generated relative hazard ratios (RHR) and 95% CIs by fitting a relative-risk regression model, using partial likelihood where the model contained the characteristic of interest as the only variable. We computed survival estimates as 3-year event-free survival and 3-year overall survival. We did a post-hoc analysis of event-free survival and overall survival by extent of disease using the same methods. We considered all eligible participants in the survival analyses by intention to treat. We did all statistical calculations using SAS (version 9.4) or Stata (version 14).
# [4] = tested on: small cell lung cancer cell cultures; details: cited from earlier work
# [5] = cited from earlier work
# [6] = tested on: pediatric patients receiving cisplatin; assay: Phase 3 trial of Example 1: haematological and renal toxicity, adverse events
# Method: (§2) Cisplatin was administered as specified by each participant's cancer treatment plan. For participants randomly assigned to the control group, the cisplatin containing treatment regimen alone was to be administered. […] Concurrent use of other ototoxic drugs (eg, aminoglycosides and loop diuretics) was discouraged by protocol for all participants but captured in data reporting.
# as §1
# For haematological and renal toxicity, denominators represent the number of participants who completed the required toxicity assessment during each cycle. For both types of toxicity, we assessed the hypothesis of no difference in incidence using a χ^2 test of proportions.
# [7] = tested on: pediatric patients receiving cisplatin; details: for Incidence of hearing loss / Hearing loss: 4 weeks; for Mean change in hearing threshold: baseline to 4 weeks after cisplatin, negative = better threshold
# Excerpt: The study was designed as a multicentre, randomised, open-label, phase 3 clinical trial. Patients were enrolled at 38 participating Children's Oncology Group (COG) hospitals in the USA and Canada. Written consent or assent from participants or their legal guardians were obtained before registration. The study was approved by the US National Cancer Institute (NCI) Central Institutional Review Board and site institutional review boards. Co-enrollment onto a companion observational cohort study of ototoxicity grading scales was mandatory. Participants in the study were aged 1-18 years at study entry and were newly diagnosed with hepatoblastoma, germ cell tumour, medulloblastoma or CNS primitive neuroectodermal tumour, neuroblastoma, osteosarcoma, or other cancer types treated with cisplatin.
# Key eligibility criteria included planned cumulative cisplatin dose of 200 mg/m^2 or more and infusion duration of 6 h or less; performance score of 50 or more by the Karnofsky (>16 years) or Lansky (≤16 years) scales; no previous cisplatin or carboplatin treatment; no known thiol hypersensitivity; and normal institutional laboratory values reflecting haematological, renal, and hepatic function. Normal hearing was required before enrolment as defined by hearing thresholds of 20 dB hearing level (HL) or less at 500-8000 Hz when measured with earphones or 25 dB HL or less when measured in the sound field, or as defined by brainstem auditory evoked response thresholds equivalent to behavioural thresholds of 20 dB HL or less. Previous cranial irradiation was initially not allowed but later permitted, provided hearing was normal, by a protocol amendment (Mar. 31, 2010) to augment trial recruitment. Patients were not eligible if they were registered on a cancer directed COG therapeutic study to avoid potential confounding of the primary aims by the ACCL0431 randomization.
# The randomization was centrally computer-generated by the COG trial management system. Allocation was electronically concealed to all investigators, clinicians, and participants. Site research staff did the enrolment, entering eligibility confirmation and specification of stratification factors into the COG trial management system, and receiving the electronically generated allocation for the site. Randomization was 1:1 and was initially stratified into four groups defined by age (<5 years or ≥5 years) and duration of cisplatin infusion (<2 h or ≥2 h). Later, we added one separate stratum for eligible participants who had previously received cranial irradiation, irrespective of age or duration of cisplatin infusion. Randomization was masked for central reviewers of audiometry data, but was not placebo controlled for participants or treating clinicians to minimise complexity and cost for participating sites.
# as §2
# Hearing assessments were done at baseline, up to 8 days before each cisplatin course, 4 weeks after completion of the final cisplatin course, and 1 year later. Audiometry included measurement of bilateral pure tone air conduction thresholds at 500-8000 Hz with earphones or in the sound field using paediatric hearing assessment methods; otoscopy; immittance evaluation of middle ear function; and evoked otoacoustic emissions, if available. For participants unable to cooperate due to very young age, developmental disability, or medical status, brainstem auditory evoked response thresholds were to be measured instead.
# Audiological testing was completed using standard clinical audiometers, middle ear analyzers, evoked potentials systems, and evoked otoacoustic emission OAE systems (if available).
# [8] = all eligible, 61 participants assigned
compound,measurement,setting,value
N.N.[Cl][Pt][Cl] [cisplatin],Patients having Brock grade 0 or little to no hearing loss,[1]; by treatment arm,below 40%
same,Incidence rate of Brock ≥1 hearing loss,[1]; by treatment arm (cisplatin only or cisplatin followed by STS),67%
same,Stability post dilution,[2],≤ 7 days
sodium thiosulfate,"Deaths, number",[3]; [8],17
same,"Events, number",[3]; [8],26
same,"Deaths, number",[3]; disseminated disease,11
same,"Events, number",[3]; disseminated disease,12
same,Event-free survival vs control group,[3]; disseminated disease (n=47),no difference
same,Overall survival vs control group,[3]; disseminated disease (n=47),significantly lower
same,3-year event-free survival,"[3]; disseminated disease, post-hoc",42%
same,3-year overall survival,"[3]; disseminated disease, post-hoc",45%
same,3-year event-free survival,[3]; entire sample,54%
same,3-year overall survival,[3]; entire sample,70%
same,Event-free survival or overall survival vs control group,[3]; entire sample,no significant difference
same,"Deaths, number",[3]; localised disease,six
same,"Events, number",[3]; localised disease,14
same,Event-free survival or overall survival vs control group,[3]; localised disease (n=77),no significant difference
same,3-year event-free survival,"[3]; localised disease, post-hoc",60%
same,3-year overall survival,"[3]; localised disease, post-hoc",83%
same,Effect of STS on cytotoxicity of etoposide,"[4]; immediate or delayed addition of STS, incubation for 72 hours",no reduction of cytotoxicity
same,"Effect of STS on anti-tumor activity of doxorubicin, carmustine (BCNU), paclitaxel or methotrexate",[4]; similar studies,no reduction of anti-tumor activity
same,Excreted unchanged in the urine,[5]; following IV injection,Up to 95%
same,Biological half-life,[5]; in vivo,0.65 hours
same,"Biological half-life, range dependent on dose",[5]; in vivo,16.5-182 minutes
same,"Hypokalaemia (most common non-haematological adverse event), participant cycles",[6]; 25 of 147 participant cycles,17%
same,"Aggregate nephrotoxicity, participant cycles affected",[6]; 37 of 147 participant cycles,25%
same,"Grade 3-4 neutropenia, participant cycles","[6]; 117 of 177 participant cycles, irrespective of attribution",66%
same,"Haematological toxicity, participant cycles affected",[6]; 137 of 177 participant cycles,77%
same,"Serious adverse events reported, number",[6]; in 26 patients,194
same,"Haematological serious adverse events, number",[6]; in vivo,70
same,Hypophosphataemia and hypokalaemia vs control group,[6]; in vivo,more common
same,Increased creatinine or reduced glomerular filtration rate meeting CTCAE grade 3 threshold,[6]; in vivo,no cases
same,"Non-haematological serious adverse events, number",[6]; in vivo,85
same,"Haematological serious adverse events deemed possibly related, number",[6]; of 70,four
same,"Haematological serious adverse events deemed unlikely related, number",[6]; of 70,13
same,"Haematological serious adverse events deemed unrelated, number",[6]; of 70,53
same,Haematological serious adverse events probably or definitely related,[6]; of 70,none
same,"Non-haematological serious adverse events deemed possibly related, number",[6]; of 85,11
same,"Non-haematological serious adverse events deemed unlikely related, number",[6]; of 85,25
same,"Non-haematological serious adverse events deemed unrelated, number",[6]; of 85,49
same,Non-haematological serious adverse events probably or definitely related,[6]; of 85,none
same,"Serious adverse events deemed possibly related, number",[6]; of 194,20
same,"Serious adverse events deemed unlikely related, number",[6]; of 194,62
same,"Serious adverse events deemed unrelated, number",[6]; of 194,112
same,Serious adverse events probably or definitely related,[6]; of 194,none
same,"Serious adverse events: decreased platelet count, number","[6]; of 194, in 12 participants",23
same,"Serious adverse events: decreased neutrophil count, number","[6]; of 194, in 14 participants",26
same,"Serious adverse events: anaemia, number","[6]; of 194, in ten participants",21
same,"Hearing loss (ASHA criteria), proportion of participants","[7]; 4 weeks after final cisplatin, all assessable participants (49 in STS group)",28.6%
same,Incidence of hearing loss,[7]; after cisplatin infusion of 2-6 h,41.7%
same,Incidence of hearing loss,[7]; after cisplatin infusion of less than 2 h,16.0%
same,Incidence of hearing loss,[7]; older patients (5 years or more),31.4%
same,Incidence of hearing loss,[7]; participants younger than 5 years,21.4%
same,Hearing loss,"[7]; post-hoc, eight irradiated participants excluded",26.7%
same,Hearing loss,[7]; stratum of previous cranial irradiation,50%
same,Change between groups (Control vs STS) in mean hearing threshold change,[7]; 500 Hz,0.4
same,Mean change in hearing threshold,[7]; 500 Hz,−1.5
same,Change between groups (Control vs STS) in mean hearing threshold change,[7]; 1000 Hz,0.4
same,Mean change in hearing threshold,[7]; 1000 Hz,−0.7
same,Change between groups (Control vs STS) in mean hearing threshold change,[7]; 2000 Hz,1.8
same,Mean change in hearing threshold,[7]; 2000 Hz,−1.2
same,Change between groups (Control vs STS) in mean hearing threshold change,[7]; 4000 Hz,8.5
same,Mean change in hearing threshold,[7]; 4000 Hz,1.1
same,Change between groups (Control vs STS) in mean hearing threshold change,[7]; 8000 Hz,7.3
same,Mean change in hearing threshold,[7]; 8000 Hz,9.7
same,ASHA-defined hearing loss,"[7]; at 1 year, post-hoc analysis",28%
